The source of these data is the supplement of paper PMC11281043.

Details in all cases: exposure: 6-8 hpf to 5 dpf, scored at 6 dpf
Experiment [1] deals with Danio rerio embryo/larva. Description: max % larvae unhatched across tested concentrations; max tested concentration (log10 uM): 1.60206; higher = more toxic.
In experiment [2] the test system is Danio rerio embryo/larva. Description: max % larvae dead across tested concentrations; max tested concentration (log10 uM): 1.60206; higher = more toxic; extreme values may be limits of the assay.
Experiment [3] relates to Danio rerio embryo/larva. Nature of the experiment: max % larvae with any abnormality across tested concentrations; max tested concentration (log10 uM): 1.60206; higher = more toxic; extreme values may be limits of the assay.
In experiment [4] the test system is Danio rerio embryo/larva. Nature of the experiment: BMC edema; higher = less potent. The procedure: (§1)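 Zebrafish embryos (with chorion) were exposed from 6-8 hpf to each PFAS (8-point half-log series, top concentration up to 100 uM, 0.4% DMSO, sealed plates, 26 C; n = 6 embryos per concentration), rinsed at 5 dpf and scored at 6 dpf by two blinded observers for mortality, hatching and malformations. Endpoint scores are the % of living larvae affected (dead larvae excluded; […]). Curves were fitted with tcpl (cutoff 16%), and the BMC is the concentration at a benchmark response of 21.6%.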

The test system of experiment [5] is Danio rerio embryo/larva. Description: BMC abnormal position; higher = less potent. The procedure: as §1
Experiment [6] deals with Danio rerio embryo/larva. Description: BMC swim bladder non-inflation; higher = less potent. How it is done:
as §1

The subject of experiment [7] is Danio rerio embryo/larva. Nature of the experiment: BMC mortality; max tested concentration (log10 uM): 2; higher = less potent. How it is done: as §1
Experiment [8] has as its system Danio rerio embryo/larva. Nature of the experiment: BMC any abnormality; max tested concentration (log10 uM): 2; higher = less potent. How it is done:
as §1

The test system of experiment [9] is Danio rerio embryo/larva. Description: max % larvae unhatched across tested concentrations; max tested concentration (log10 uM): 2; higher = more toxic.
The test system of experiment [10] is Danio rerio embryo/larva. Nature of the experiment: max % larvae dead across tested concentrations; max tested concentration (log10 uM): 2; higher = more toxic; extreme values may be limits of the assay.
For experiment [11], the system named is Danio rerio embryo/larva. Nature of the experiment: max % larvae with any abnormality across tested concentrations; max tested concentration (log10 uM): 2; higher = more toxic; extreme values may be limits of the assay.
For experiment [12], the system named is Danio rerio embryo/larva. Nature of the experiment: BMC craniofacial defects; higher = less potent. The procedure:
as §1

Setting [13] is: max tested concentration (log10 uM): 1.47712.
Where [14] appears, read: max tested concentration (log10 uM): 2.
Where [15] appears, read: max tested concentration (log10 uM): 1.
Where [16] appears, read: max tested concentration (log10 uM): 0.477121.

Take `CCCCCCCCC(F)(F)C(F)(F)C(F)(F)C(F)(F)C(F)(F)C(F)(F)F` [1-(Perfluorohexyl)octane]: in the experiment on Danio rerio embryo/larva [1], the “max % larvae unhatched across tested concentrations” value stood at 0%. In addition, in the experiment with Danio rerio embryo/larva [2], the “max % larvae dead across tested concentrations” value turned out to be 0%. Further, in the experiment on Danio rerio embryo/larva [3], the max % larvae came to 0%.

Take `FC(F)(F)C(F)(F)C(F)(F)C(F)(F)C(F)(F)C(F)(F)C(F)(F)CCI` [1-Iodo-1H,1H,2H,2H-perfluorononane]: the “max % larvae unhatched across tested concentrations” value in the experiment on Danio rerio embryo/larva [1] came out at 0%. The “max % larvae dead across tested concentrations” value with Danio rerio embryo/larva [2] was 16.7%. The compound further yielded a max % larvae in the experiment with Danio rerio embryo/larva [3] of 16.7%.

Turning to `FC(F)(F)C(F)(F)C(F)(F)C(F)(F)C(F)(F)C(F)(F)CCS` [2-(Perfluorohexyl)ethanethiol], in the experiment with Danio rerio embryo/larva [1], the “max % larvae unhatched across tested concentrations” value was 0%. Besides, the “max % larvae dead across tested concentrations” value in the experiment with Danio rerio embryo/larva [2] is 0%. The same compound had a max % larvae in the experiment on Danio rerio embryo/larva [3] of 16.7%.

As to `FC(F)(F)C(F)(F)C(F)(F)C(F)(F)C(F)(F)C(F)(F)C(F)(F)C(F)(F)CCS` [2-(Perfluorooctyl)ethanthiol], in the experiment on Danio rerio embryo/larva [1], the “max % larvae unhatched across tested concentrations” value turned out to be 0%. In addition, the “max % larvae dead across tested concentrations” value in the experiment on Danio rerio embryo/larva [2] was 0%. The compound further came in with a max % larvae in the experiment on Danio rerio embryo/larva [3] of 10.4%.

`O=C(O)CCC(F)(F)C(F)(F)C(F)(F)C(F)(F)C(F)(F)F` [2H,2H,3H,3H-Perfluorooctanoic acid] came in with a BMC edema in the experiment on Danio rerio embryo/larva [4] (setting [13]) of 9.38 µM. This compound also returned a BMC abnormal position with Danio rerio embryo/larva [5] (setting [13]) of 12.2 µM. Moreover, the “BMC swim bladder non-inflation” value with Danio rerio embryo/larva [6] (setting [13]) is 9.28 µM. This compound came in with a BMC mortality with Danio rerio embryo/larva [7] of 24.8 µM. Further, in the experiment with Danio rerio embryo/larva [8], the BMC any abnormality is 8.77 µM. In the experiment with Danio rerio embryo/larva [9], the “max % larvae unhatched across tested concentrations” value came out at 0%. For the same compound, the “max % larvae dead across tested concentrations” value in the experiment with Danio rerio embryo/larva [10] turned out to be 100%. The max % larvae in the experiment with Danio rerio embryo/larva [11] was found to be 100%.

Consider `FC(F)(F)C(F)(C(F)(F)F)C(F)(F)C(F)(F)CC1CO1` (stereo unspecified) [3-(Perfluoro-3-methylbutyl)-1,2-propenoxide], for which the “max % larvae unhatched across tested concentrations” value in the experiment on Danio rerio embryo/larva [1] was found to be 0%. For the same compound, the “max % larvae dead across tested concentrations” value with Danio rerio embryo/larva [2] is 0%. This compound also returned a max % larvae in the experiment with Danio rerio embryo/larva [3] of 0%.

Consider `OCCCCC(F)(F)C(F)(F)C(F)(F)C(F)(F)F` [4:4 Fluorotelomer alcohol], for which the BMC edema in the experiment on Danio rerio embryo/larva [4] (setting [14]) was 25.8 µM. In the experiment with Danio rerio embryo/larva [12] (setting [14]), this compound gave a BMC craniofacial defects of 34.7 µM. In the experiment with Danio rerio embryo/larva [6] (setting [14]), the “BMC swim bladder non-inflation” value stood at 27.1 µM. This compound returned a BMC mortality in the experiment on Danio rerio embryo/larva [7] of 86.5 µM. This compound also registered a BMC any abnormality in the experiment with Danio rerio embryo/larva [8] of 25.5 µM. Moreover, in the experiment with Danio rerio embryo/larva [9], the “max % larvae unhatched across tested concentrations” value turned out to be 0%. In addition, the “max % larvae dead across tested concentrations” value in the experiment with Danio rerio embryo/larva [10] was found to be 41.7%. This compound displayed a max % larvae in the experiment on Danio rerio embryo/larva [11] of 97.9%.

In the experiment with Danio rerio embryo/larva [4] (setting [14]), `O=C(O)C(F)(F)C(F)(F)C(F)(F)C(F)(F)C(F)(F)C(F)(F)C(F)(F)C(F)(F)Cl` [9-Chloro-perfluorononanoic acid] gave a BMC edema of 17.5 µM. The compound also returned a BMC abnormal position with Danio rerio embryo/larva [5] (setting [14]) of 80.3 µM. The BMC craniofacial defects in the experiment with Danio rerio embryo/larva [12] (setting [14]) is 31.1 µM. Moreover, in the experiment with Danio rerio embryo/larva [6] (setting [14]), the “BMC swim bladder non-inflation” value was determined as 6.38 µM. In addition, in the experiment on Danio rerio embryo/larva [7], the BMC mortality was found to be 31.1 µM. Moreover, the BMC any abnormality in the experiment with Danio rerio embryo/larva [8] came out at 8.75 µM. Also, in the experiment with Danio rerio embryo/larva [9], the “max % larvae unhatched across tested concentrations” value turned out to be 0%. In the experiment with Danio rerio embryo/larva [10], the “max % larvae dead across tested concentrations” value is 100%. In the experiment with Danio rerio embryo/larva [11], this compound yielded a max % larvae of 100%.

On to `O=P(O)(O)CCC(F)(F)C(F)(F)C(F)(F)C(F)(F)C(F)(F)C(F)(F)C(F)(F)C(F)(F)F` [((Perfluorooctyl)ethyl)phosphonic acid], for which the BMC edema in the experiment on Danio rerio embryo/larva [4] (setting [14]) came to 1.37 µM. Further, the BMC abnormal position with Danio rerio embryo/larva [5] (setting [14]) was 63.6 µM. In addition, in the experiment on Danio rerio embryo/larva [6] (setting [14]), the “BMC swim bladder non-inflation” value amounted to 0.92 µM. Besides, the BMC mortality with Danio rerio embryo/larva [7] was determined as 10.4 µM. The BMC any abnormality with Danio rerio embryo/larva [8] came out at 0.578 µM. Also, in the experiment with Danio rerio embryo/larva [9], the “max % larvae unhatched across tested concentrations” value was found to be 0%. The “max % larvae dead across tested concentrations” value with Danio rerio embryo/larva [10] was determined as 100%. In addition, in the experiment on Danio rerio embryo/larva [11], the max % larvae worked out at 100%.

In the experiment on Danio rerio embryo/larva [4] (setting [14]), `CC(C)(C)C(=O)CC(=O)C(F)(F)C(F)(F)C(F)(F)F` [(Heptafluorobutanoyl)pivaloylmethane] gave a BMC edema of 25.6 µM. Besides, the BMC abnormal position with Danio rerio embryo/larva [5] (setting [14]) is 33.1 µM. Moreover, the BMC craniofacial defects in the experiment on Danio rerio embryo/larva [12] (setting [14]) worked out at 26.6 µM. Further, in the experiment on Danio rerio embryo/larva [6] (setting [14]), the “BMC swim bladder non-inflation” value was found to be 23 µM. Also, in the experiment with Danio rerio embryo/larva [7], the BMC mortality amounted to 31.2 µM. For the same compound, in the experiment on Danio rerio embryo/larva [8], the BMC any abnormality is 23.4 µM. In the experiment with Danio rerio embryo/larva [9], the “max % larvae unhatched across tested concentrations” value is 0%. In addition, the “max % larvae dead across tested concentrations” value with Danio rerio embryo/larva [10] amounted to 58.3%. In the experiment on Danio rerio embryo/larva [11], this compound showed a max % larvae of 100%.

Compound `O=C(O)C(F)(F)OC(F)(F)C(F)(F)OC(F)(F)C(F)(F)OC(F)(F)C(F)(F)C(F)(F)C(F)(F)F` [Perfluoro-3,6,9-trioxatridecanoic acid] displayed a BMC edema in the experiment on Danio rerio embryo/larva [4] (setting [15]) of 3.13 µM. The same compound had a BMC abnormal position in the experiment on Danio rerio embryo/larva [5] (setting [15]) of 8.04 µM. Further, the “BMC swim bladder non-inflation” value in the experiment with Danio rerio embryo/larva [6] (setting [15]) amounted to 1.3 µM. The BMC mortality with Danio rerio embryo/larva [7] came to 7.79 µM. Besides, the BMC any abnormality in the experiment on Danio rerio embryo/larva [8] came to 2.47 µM. Besides, in the experiment on Danio rerio embryo/larva [9], the “max % larvae unhatched across tested concentrations” value amounted to 0%. The “max % larvae dead across tested concentrations” value with Danio rerio embryo/larva [10] was 100%. Besides, the max % larvae in the experiment on Danio rerio embryo/larva [11] turned out to be 100%.

The compound `NS(=O)(=O)C(F)(F)C(F)(F)C(F)(F)C(F)(F)C(F)(F)C(F)(F)F` [Perfluorohexanesulfonamide] showed a BMC edema with Danio rerio embryo/larva [4] (setting [16]) of 1.66 µM. Also, in the experiment on Danio rerio embryo/larva [5] (setting [16]), the BMC abnormal position was determined as 2.67 µM. The compound further came in with a BMC craniofacial defects in the experiment on Danio rerio embryo/larva [12] (setting [16]) of 2.4 µM. Further, the “BMC swim bladder non-inflation” value in the experiment with Danio rerio embryo/larva [6] (setting [16]) stood at 2.28 µM. The same compound displayed a BMC any abnormality with Danio rerio embryo/larva [8] of 1.45 µM. The “max % larvae unhatched across tested concentrations” value in the experiment with Danio rerio embryo/larva [9] was 0%. The max % larvae in the experiment with Danio rerio embryo/larva [11] turned out to be 100%.

In the experiment with Danio rerio embryo/larva [4] (setting [14]), `O=S(=O)(O)C(F)(F)C(F)(F)C(F)(F)C(F)(F)C(F)(F)C(F)(F)F` [Perfluorohexanesulfonic acid] gave a BMC edema of 31.7 µM. Also, in the experiment on Danio rerio embryo/larva [5] (setting [14]), the BMC abnormal position was determined as 90.6 µM. In the experiment with Danio rerio embryo/larva [12] (setting [14]), this compound had a BMC craniofacial defects of 78.9 µM. Moreover, the “BMC swim bladder non-inflation” value in the experiment with Danio rerio embryo/larva [6] (setting [14]) came out at 34.1 µM. The compound further registered a BMC any abnormality in the experiment on Danio rerio embryo/larva [8] of 30.2 µM. Moreover, the “max % larvae unhatched across tested concentrations” value with Danio rerio embryo/larva [9] was 0%. Further, the max % larvae in the experiment on Danio rerio embryo/larva [11] is 100%.

Turning to `O=C(O)C(F)(F)C(F)(F)C(F)(F)C(F)(F)C(F)(F)C(F)(F)C(F)(F)C(F)(F)F` [Perfluorononanoic acid], the BMC edema with Danio rerio embryo/larva [4] (setting [14]) turned out to be 28 µM. The compound further returned a BMC abnormal position with Danio rerio embryo/larva [5] (setting [14]) of 87.8 µM. Also, the “BMC swim bladder non-inflation” value in the experiment with Danio rerio embryo/larva [6] (setting [14]) was determined as 25.5 µM. Also, the BMC mortality in the experiment on Danio rerio embryo/larva [7] is 73.9 µM. The compound further displayed a BMC any abnormality with Danio rerio embryo/larva [8] of 25.5 µM. Besides, in the experiment with Danio rerio embryo/larva [9], the “max % larvae unhatched across tested concentrations” value is 0%. The “max % larvae dead across tested concentrations” value with Danio rerio embryo/larva [10] is 75%. The compound further displayed a max % larvae in the experiment with Danio rerio embryo/larva [11] of 100%.

For `O=S(=O)(O)C(F)(F)C(F)(F)C(F)(F)C(F)(F)C(F)(F)C(F)(F)C(F)(F)C(F)(F)F` [Perfluorooctanesulfonic acid], the BMC edema in the experiment on Danio rerio embryo/larva [4] (setting [15]) turned out to be 8.58 µM. Moreover, the BMC abnormal position with Danio rerio embryo/larva [5] (setting [15]) was found to be 9.2 µM. The BMC craniofacial defects in the experiment on Danio rerio embryo/larva [12] (setting [15]) worked out at 8.4 µM. Further, the “BMC swim bladder non-inflation” value with Danio rerio embryo/larva [6] (setting [15]) amounted to 8.02 µM. The BMC mortality in the experiment with Danio rerio embryo/larva [7] was 9.38 µM. The compound further registered a BMC any abnormality with Danio rerio embryo/larva [8] of 7.48 µM. The “max % larvae unhatched across tested concentrations” value with Danio rerio embryo/larva [9] is 0%. Further, the “max % larvae dead across tested concentrations” value with Danio rerio embryo/larva [10] was determined as 100%. In the experiment with Danio rerio embryo/larva [11], this compound registered a max % larvae of 100%.
